Measurements: the supplement of paper PMC10307832

Assays:
Experiment in all cases: relative viability (nuclei count vs DMSO), 5 days (fraction); higher = more cells survive
[1] = compound: C1CC2=C(C1)C=C(C=C2)OC3=NC(=C4C(=N3)N(C=N4)CC5=CC=C(C=C5)C6=CC=CC=C6)N[C@@H](CC7=CC=CC=C7)CO [QS11] + CCNC(=O)c1noc(-c2cc(C(C)C)c(O)cc2O)c1-c1ccc(CN2CCOCC2)cc1 [Luminespib] (partner 0.01 µM)
Summary of the method: (§1)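 Relative viability divides the nuclei count in treated wells by that in vehicle wells. Lung cancer cell lines were seeded in 1536-well plates, dosed by pin tool the next day, and fixed and stained after 5 days in one step with final 0.05% Triton X-100, 1% formaldehyde and 1 ug/ml Hoechst. Dosing was a single drug or a fixed anchor-drug dose plus five library-drug doses (not always all listed) in √10 steps, and values are medians of duplicate plates imaged at 4×.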

[2] = compound: CC1=C(C=C(C=C1)NC(=O)C2=CC(=CC=C2)C(C)(C)C#N)NC3=CC4=C(C=C3)N=CN(C4=O)C [AZ628] + COc1cc2c(Oc3ccc(NC(=O)C4(C(=O)Nc5ccc(F)cc5)CC4)cc3F)ccnc2cc1OCCCN1CCOCC1 [Foretinib] (partner 0.25 µM)
Summary of the method: as §1

[3] = compound: C1CC2=C(C1)C=C(C=C2)OC3=NC(=C4C(=N3)N(C=N4)CC5=CC=C(C=C5)C6=CC=CC=C6)N[C@@H](CC7=CC=CC=C7)CO [QS11] + Nc1nc2[nH]cc(CCc3ccc(C(=O)N[C@@H](CCC(=O)O)C(=O)O)cc3)c2c(=O)[nH]1 [Pemetrexed] (partner 0.2 µM)
Summary of the method: as §1

[4] = compound: C[As](C)SC[C@H](NC(=O)CC[C@H](N)C(=O)O)C(=O)NCC(=O)O [Darinaparsin] + COc1cccc2cc(-c3nc([C@H]4CC[C@H](C(=O)O)CC4)n4ncnc(N)c34)[nH]c12 [OSI-027] (partner 0.5 µM)
Summary of the method: as §1

Cell Line | relative viability ([1]; first compound 0.08 µM) | relative viability ([1]; first compound 0.253 µM) | relative viability ([1]; first compound 0.8 µM) | relative viability ([1]; first compound 2.53 µM) | relative viability ([1]; first compound 8 µM) | relative viability ([2]; first compound 0.08 µM) | relative viability ([2]; first compound 0.253 µM) | relative viability ([2]; first compound 0.8 µM) | relative viability ([2]; first compound 2.53 µM) | relative viability ([2]; first compound 8 µM) | relative viability ([3]; first compound 0.08 µM) | relative viability ([3]; first compound 0.253 µM) | relative viability ([3]; first compound 0.8 µM) | relative viability ([3]; first compound 2.53 µM) | relative viability ([3]; first compound 8 µM) | relative viability ([4]; first compound 0.08 µM) | relative viability ([4]; first compound 0.8 µM) | relative viability ([4]; first compound 2.53 µM) | relative viability ([4]; first compound 8 µM)
NCI-H2023 | 0.789 | 0.916 | 0.554 | 0.624 | 0.814 | 0.886 | 0.824 | 0.826 | 0.724 | 0.607 | 0.293 | 0.276 | 0.241 | 0.197 | 0.194 | 0.483 | 0.364 | 0.33 | 0.486
PC-3 [JPC-3] | 0.708 | 0.729 | 0.663 | 0.718 | 0.703 | 1.01 | 1.07 | 1.05 | 1.03 | 0.92 |  | 0.951 | 1.08 | 0.935 | 1.17 | 0.844 | 0.781 | 0.734 | 0.788
LXF-289 | 0.544 | 0.739 | 0.544 | 0.519 | 0.551 | 1 | 0.942 | 0.879 | 0.961 | 0.641 | 0.873 | 0.931 | 0.761 | 0.9 | 0.876 | 0.849 | 0.786 | 0.649 | 1.02
NCI-H1437 | 1.15 | 1.2 | 1.11 | 1.05 | 0.947 | 1.26 | 1.13 | 1.25 | 1.28 | 1.23 | 0.314 | 0.331 | 0.301 | 0.286 | 0.271 | 0.955 | 0.897 | 0.935 | 1.01
NCI-H838 | 0.284 | 0.246 | 0.282 | 0.289 | 0.275 | 0.931 | 1 | 1.06 | 0.914 | 0.871 | 0.245 | 0.237 | 0.236 | 0.237 | 0.24 | 0.401 | 0.34 | 0.458 | 0.428
NCI-H1563 | 0.59 | 0.541 | 0.513 | 0.532 | 0.452 | 0.957 | 0.997 | 0.944 | 0.963 | 0.953 | 0.806 | 0.838 | 0.722 | 0.881 | 0.886 | 0.752 | 0.735 | 0.71 | 0.708
NCI-H650 | 0.758 | 0.806 | 0.802 | 0.654 | 0.868 | 1.02 | 1.21 | 1.19 | 1.14 | 1.13 | 0.834 | 0.819 | 0.83 | 0.841 | 0.839 | 0.584 | 0.531 | 0.533 | 0.604
LK-2 | 0.164 | 0.229 | 0.178 | 0.172 | 0.146 | 1.42 | 0.985 | 1.09 | 1.28 | 0.587 | 0.241 | 0.318 | 0.267 | 0.27 | 0.284 | 0.188 | 0.19 | 0.181 | 0.199
